The source made the active and inactive calls. The calls are words filed in the database; no cut-off is given here.
Columns and labels:
[1] = biological target: Platelet-derived growth factor receptor beta (Homo sapiens) (UniProt P09619); assay: Inhibition of human recombinant PDGFR-beta expressed in insect cells using Ulight-Poly GAT[EAY(1:1:1)] as substrate at 1 uM after 15 to 60 mins by fluorescence assay
[2] = biological target: Epidermal growth factor receptor (Homo sapiens) (UniProt P00533); assay: Inhibition of human recombinant EGFR expressed in insect cells using Ulight-CAGAGAIETDKEYYTVKD as substrate at 1 uM after 15 to 60 mins by fluorescence assay
Epidermal growth factor receptor (Homo sapiens), sequence (P00533 whole entry): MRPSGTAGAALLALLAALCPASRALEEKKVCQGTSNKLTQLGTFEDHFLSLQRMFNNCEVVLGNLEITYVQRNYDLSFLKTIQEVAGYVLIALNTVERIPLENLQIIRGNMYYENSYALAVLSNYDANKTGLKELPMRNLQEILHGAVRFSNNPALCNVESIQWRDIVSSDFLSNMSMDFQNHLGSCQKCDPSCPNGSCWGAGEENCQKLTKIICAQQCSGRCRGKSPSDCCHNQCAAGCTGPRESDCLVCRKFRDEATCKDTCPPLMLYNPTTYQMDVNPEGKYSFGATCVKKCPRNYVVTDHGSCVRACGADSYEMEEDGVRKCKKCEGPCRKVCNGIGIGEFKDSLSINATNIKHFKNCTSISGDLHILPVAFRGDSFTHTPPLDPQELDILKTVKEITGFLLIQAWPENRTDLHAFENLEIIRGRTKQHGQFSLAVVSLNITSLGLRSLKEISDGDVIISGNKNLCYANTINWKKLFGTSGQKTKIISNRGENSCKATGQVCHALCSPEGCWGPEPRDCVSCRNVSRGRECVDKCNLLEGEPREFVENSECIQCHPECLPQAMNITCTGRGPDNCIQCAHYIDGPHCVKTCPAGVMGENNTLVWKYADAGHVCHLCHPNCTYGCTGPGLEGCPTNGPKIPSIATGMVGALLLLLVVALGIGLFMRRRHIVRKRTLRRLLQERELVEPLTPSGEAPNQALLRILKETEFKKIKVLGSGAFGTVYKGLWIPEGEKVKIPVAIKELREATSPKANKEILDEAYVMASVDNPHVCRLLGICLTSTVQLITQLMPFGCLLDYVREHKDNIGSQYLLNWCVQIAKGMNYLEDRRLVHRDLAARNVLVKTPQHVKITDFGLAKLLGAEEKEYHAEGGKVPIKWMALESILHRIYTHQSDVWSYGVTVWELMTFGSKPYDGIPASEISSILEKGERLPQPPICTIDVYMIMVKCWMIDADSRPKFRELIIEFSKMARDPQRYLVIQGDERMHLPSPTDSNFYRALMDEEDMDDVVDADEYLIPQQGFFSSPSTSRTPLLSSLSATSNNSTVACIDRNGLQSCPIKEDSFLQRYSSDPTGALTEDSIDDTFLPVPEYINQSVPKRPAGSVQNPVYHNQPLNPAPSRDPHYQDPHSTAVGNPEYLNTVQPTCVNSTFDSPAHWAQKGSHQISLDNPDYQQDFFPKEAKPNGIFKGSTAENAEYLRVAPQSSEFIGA

[3] = Ratio of cytotoxicity against human EAhy926 cells to antiangiogenic activity in VEGF-stimulated human EAhy926 cells; type: toxicity, cell-based
EA.hy 926 = assay: Antiangiogenic activity in VEGF-stimulated human EAhy926 cells assessed as inhibition of tube formation at 0.3 uM measured at 24 hrs; type: functional, cell-based
[4] = Cytotoxicity against human EAhy926 cells assessed as growth inhibition by MTT assay; type: cell-based; conditions: EA.hy 926
[5] = biological target: Vascular endothelial growth factor receptor 2 (Homo sapiens, UniProt P35968); assay: Inhibition of human recombinant VEGFR2 expressed in insect cells using Ulight-CAGAGAIETDKEYYTVKD as substrate after 15 to 60 mins by fluorescence assay
Vascular endothelial growth factor receptor 2, sequence (P35968 whole entry): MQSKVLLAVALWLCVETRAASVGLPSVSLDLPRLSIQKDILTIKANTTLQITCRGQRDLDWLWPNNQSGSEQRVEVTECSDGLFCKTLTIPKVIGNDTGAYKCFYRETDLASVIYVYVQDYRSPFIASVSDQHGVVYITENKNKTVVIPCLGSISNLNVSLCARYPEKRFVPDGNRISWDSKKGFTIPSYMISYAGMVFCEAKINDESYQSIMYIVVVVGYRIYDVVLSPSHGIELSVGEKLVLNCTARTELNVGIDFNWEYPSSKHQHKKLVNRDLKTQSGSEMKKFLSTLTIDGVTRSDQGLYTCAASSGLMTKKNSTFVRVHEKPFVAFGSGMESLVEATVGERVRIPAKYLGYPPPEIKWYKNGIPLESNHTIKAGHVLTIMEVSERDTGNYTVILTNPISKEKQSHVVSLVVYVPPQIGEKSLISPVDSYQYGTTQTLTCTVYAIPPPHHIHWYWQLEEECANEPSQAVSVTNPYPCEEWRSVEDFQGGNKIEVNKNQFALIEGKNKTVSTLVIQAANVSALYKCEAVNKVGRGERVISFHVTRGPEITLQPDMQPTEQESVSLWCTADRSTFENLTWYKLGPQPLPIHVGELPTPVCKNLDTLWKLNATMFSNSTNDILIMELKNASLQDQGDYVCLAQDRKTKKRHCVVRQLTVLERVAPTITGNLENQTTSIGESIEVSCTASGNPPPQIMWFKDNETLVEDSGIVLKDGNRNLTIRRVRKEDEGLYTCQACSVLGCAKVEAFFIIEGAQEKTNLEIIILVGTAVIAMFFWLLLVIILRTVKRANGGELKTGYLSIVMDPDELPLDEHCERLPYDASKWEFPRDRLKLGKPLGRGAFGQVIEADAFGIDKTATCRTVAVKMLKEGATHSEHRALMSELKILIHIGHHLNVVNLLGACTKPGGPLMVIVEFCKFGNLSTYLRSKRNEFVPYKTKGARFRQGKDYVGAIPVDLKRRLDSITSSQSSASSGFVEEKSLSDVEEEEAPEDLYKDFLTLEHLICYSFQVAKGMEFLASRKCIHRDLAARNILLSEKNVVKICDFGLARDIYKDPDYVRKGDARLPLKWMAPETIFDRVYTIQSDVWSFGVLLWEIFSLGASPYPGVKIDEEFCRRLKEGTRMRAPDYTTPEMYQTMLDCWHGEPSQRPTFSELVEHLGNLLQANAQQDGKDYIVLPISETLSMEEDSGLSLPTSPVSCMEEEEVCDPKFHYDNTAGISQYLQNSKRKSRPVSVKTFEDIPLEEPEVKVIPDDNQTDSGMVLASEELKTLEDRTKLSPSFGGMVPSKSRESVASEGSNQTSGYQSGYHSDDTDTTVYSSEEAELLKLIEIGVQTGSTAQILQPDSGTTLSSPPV

HeLa = assay: Cytotoxicity against human HeLa cells assessed as growth inhibition by MTT assay; type: cell-based
[6] = Cytotoxicity against human H460 cells assessed as growth inhibition by MTT assay; type: cell-based; conditions: NCI-H460
MCF7 = assay: Cytotoxicity against human MCF7 cells assessed as growth inhibition by MTT assay; type: cell-based
HepG2 = assay: Cytotoxicity against human HepG2 cells assessed as growth inhibition by MTT assay; type: cell-based
HUVEC = assay: Cytotoxicity against HUVEC by MTT assay; conditions: Homo sapiens

Platelet-derived growth factor receptor beta (Homo sapiens), sequence (P09619 whole entry): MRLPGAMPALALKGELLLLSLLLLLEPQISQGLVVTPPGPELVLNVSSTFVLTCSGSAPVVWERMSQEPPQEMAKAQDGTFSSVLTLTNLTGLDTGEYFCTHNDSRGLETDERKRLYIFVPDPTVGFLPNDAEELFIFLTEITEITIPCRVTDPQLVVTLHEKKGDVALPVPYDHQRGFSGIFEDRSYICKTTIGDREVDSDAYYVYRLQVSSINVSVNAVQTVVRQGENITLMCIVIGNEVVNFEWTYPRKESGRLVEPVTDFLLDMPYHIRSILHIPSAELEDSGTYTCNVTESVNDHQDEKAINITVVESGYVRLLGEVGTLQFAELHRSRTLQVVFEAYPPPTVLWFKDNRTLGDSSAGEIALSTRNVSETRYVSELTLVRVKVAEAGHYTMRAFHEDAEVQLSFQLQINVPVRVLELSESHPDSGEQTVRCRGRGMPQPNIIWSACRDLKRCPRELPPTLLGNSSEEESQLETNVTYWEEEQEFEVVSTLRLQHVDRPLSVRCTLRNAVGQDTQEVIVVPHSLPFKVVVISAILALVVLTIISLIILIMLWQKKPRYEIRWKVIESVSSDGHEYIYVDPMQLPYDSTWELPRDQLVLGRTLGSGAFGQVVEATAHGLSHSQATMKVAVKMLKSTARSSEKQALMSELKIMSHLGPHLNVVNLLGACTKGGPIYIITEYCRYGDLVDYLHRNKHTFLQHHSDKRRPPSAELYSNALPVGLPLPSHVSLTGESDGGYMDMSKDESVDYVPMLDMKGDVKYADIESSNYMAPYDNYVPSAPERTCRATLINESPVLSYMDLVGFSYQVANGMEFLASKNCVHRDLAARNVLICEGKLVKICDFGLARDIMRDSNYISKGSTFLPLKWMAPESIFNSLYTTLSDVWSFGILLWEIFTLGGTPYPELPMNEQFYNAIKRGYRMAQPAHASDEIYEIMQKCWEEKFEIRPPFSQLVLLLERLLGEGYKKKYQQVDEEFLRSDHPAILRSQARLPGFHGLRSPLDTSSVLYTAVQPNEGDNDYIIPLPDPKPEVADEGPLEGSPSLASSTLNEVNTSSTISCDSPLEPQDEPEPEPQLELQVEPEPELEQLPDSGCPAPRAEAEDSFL

With `O=C(NCc1cn(-c2ccc3[nH]ncc3c2)nn1)Nc1cccc(CCl)c1` the inhibition [1] was “inactive” and the inhibition [2] was “Active”.
In the case of `O=C(NCc1cn(-c2ccc3cn[nH]c3c2)nn1)Nc1cccc(CCl)c1`, the inhibition [1] is reported as “inactive”, the selectivity ratio [3] is reported as 13 and the inhibition (EA.hy 926) is reported as “Active”. The IC50 [4] was 4 µM, the inhibition [2] was “Active” and the IC50 [5] was 0.56 µM. For the same molecule, the IC50 (HeLa) was 33 µM, the IC50 [6] was 71 µM and the IC50 (MCF7) was 21 µM. For the same molecule, the IC50 (HepG2) was > 100 µM.
For `O=C(NCc1cn(-c2ccc(S(=O)(=O)N3CCOCC3)cc2)nn1)Nc1cccc(CCl)c1`, the inhibition [1] was “inactive” and the inhibition [2] was “Active”.
For `NS(=O)(=O)c1cccc(-n2cc(CNC(=O)Nc3cccc(CCl)c3)nn2)c1`, the inhibition [1] was “inactive” and the inhibition [2] was “Active”.
For `CNC(=O)c1cc(Oc2ccc(NC(=O)Nc3ccc(Cl)c(C(F)(F)F)c3)cc2)ccn1` [SORAFENIB], the IC50 (HUVEC) was 4 µM.
With `CC(=O)N1CCc2ccc(-n3cc(CNC(=O)Nc4cccc(CCl)c4)nn3)cc21` the inhibition [1] was “inactive” and the inhibition [2] was “Active”.
In the case of `O=C(NCc1cn(-c2ccc3ncsc3c2)nn1)Nc1cccc(CCl)c1`, the inhibition [1] is reported as “inactive” and the inhibition [2] is reported as “Active”.
With `C#CCNC(=O)Nc1cccc(CCl)c1` the inhibition [1] was “inactive” and the inhibition [2] was “Active”.
With `O=C(NCc1cn(Cc2cc(=O)[nH]c3ccccc23)nn1)Nc1cccc(CCl)c1` the inhibition [1] was “inactive” and the inhibition [2] was “Active”.
For `O=C(NCc1cn(CCN2C(=O)c3ccccc3C2=O)nn1)Nc1cccc(CCl)c1`, the inhibition [1] was “inactive” and the inhibition [2] was “Active”.
For `O=C(NCc1cn(-c2ccc3scnc3c2)nn1)Nc1cccc(CCl)c1`, the inhibition [1] was “inactive” and the inhibition [2] was “Active”.
For `COC(=O)c1ccc(-n2cc(CNC(=O)Nc3cccc(CCl)c3)nn2)cc1`, the inhibition [1] was “inactive” and the inhibition [2] was “Active”.
With `NS(=O)(=O)c1ccc(-n2cc(CNC(=O)Nc3cccc(CCl)c3)nn2)cc1` the inhibition [1] was “inactive” and the inhibition [2] was “Active”.

Reference: ChEMBL document CHEMBL2380250, “Novel VEGFR-2 kinase inhibitors identified by the back-to-front approach” (Bioorg Med Chem Lett, 2013)
